Activity calls are given as the source filed them. The rule behind the calls is not given here.
How the values were obtained:
Klebsiella pneumoniae [1] = assay: Binding affinity to Klebsiella pneumoniae 6xHis-tagged metallo-beta-lactamase NDM-1 K224A mutant expressed in Escherichia coli BL21 (DE3)pLysS at 1.5 mM after 3 hrs by ESI-MS analysis
Klebsiella pneumoniae [2] = assay: Inhibition of Klebsiella pneumoniae 6xHis-tagged metallo-beta-lactamase NDM-1 K224A mutant expressed in Escherichia coli BL21 (DE3)pLysS assessed as hydrolysis of imipenem up to 750 uM after 20 mins
[3] = biological target: T1, Metallo-beta-lactamase type 2 (Klebsiella pneumoniae, UniProt C7C422); assay: Time-dependent inhibition of wild type Klebsiella pneumoniae 6xHis-tagged metallo-beta-lactamase NDM-1 expressed in Escherichia coli BL21 (DE3)pLysS assessed as inhibition constant for initial non-covalant complex
[4] = biological target: T1, Metallo-beta-lactamase type 2; assay: Time-dependent inhibition of wild type Klebsiella pneumoniae 6xHis-tagged metallo-beta-lactamase NDM-1 expressed in Escherichia coli BL21 (DE3)pLysS
[5] = Inhibition of beta-lactamase VIM-2 (unknown origin)
[6] = biological target: Metallo-beta-lactamase type 2 (Klebsiella pneumoniae) (UniProt C7C422); settings: 200 uM
[7] = biological target: Metallo-beta-lactamase type 2 (Klebsiella pneumoniae) (UniProt C7C422); settings: 2 uM

Sequence of Metallo-beta-lactamase type 2 (Klebsiella pneumoniae) (C7C422 whole entry): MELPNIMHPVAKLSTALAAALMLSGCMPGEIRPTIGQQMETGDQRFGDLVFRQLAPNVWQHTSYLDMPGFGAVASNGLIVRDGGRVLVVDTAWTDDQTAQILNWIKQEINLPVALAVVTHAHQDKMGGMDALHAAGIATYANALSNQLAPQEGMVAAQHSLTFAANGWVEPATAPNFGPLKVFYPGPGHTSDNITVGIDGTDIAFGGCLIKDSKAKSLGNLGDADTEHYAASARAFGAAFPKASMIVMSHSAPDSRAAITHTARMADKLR
T1 sequence (C7C422 whole entry): as above

In the case of `O=Cc1coc2ccccc2c1=O`, the Activity (Klebsiella pneumoniae [1]) is reported as “inactive”, the inhibition (Klebsiella pneumoniae [2]) is reported as “inactive” and the Ki [3] is reported as 76 µM. For the same compound, the Ki [4] was 0.58 µM, the inhibition [5] was “inactive” and the inhibition [6] was “tde”. The inhibition [7] was “tde”.

From ChEMBL document CHEMBL3808380, “Discovery of a novel covalent non-β-lactam inhibitor of the metallo-β-lactamase NDM-1” (Bioorg Med Chem, 2016)
